{"source": "patent US7417043B2", "about": "“Modulators of dopamine neurotransmission” (NeuroSearch Sweden AB, priority 1999, dated 2008)", "key": {"[1]": {"tested_on": "non-pre-treated rat", "assay": "In vivo test: behavior, motility meter, non-pre-treated rats", "conditions": "for behavioral (motor) activity: 60 min session"}, "[2]": {"tested_on": "3,4-dihydroxyphenylacetic acid in the striatum", "assay": "In vivo test: neurochemistry, DOPAC in brain tissue", "set-up": "species or system rat", "conditions": "for 3,4-dihydroxyphenylacetic acid in the striatum: rat", "excerpt": "(§1) In vivo Test: Neurochemistry\n(§2) After the behavioral activity sessions the rats were decapitated and their brains rapidly taken out and put on an ice-cold petri-dish. The limbic forebrain, the striatum, the frontal cortex and the remaining hemispheral parts of each rat were dissected and frozen. Each brain part was subsequently analyzed with respect to its content of monoamines and their metabolites. The monoaminergic indices analyzed were dopamine (DA), 3,4-dihydroxyphenylacetic acid (DOPAC), homovanillic acid (HVA), 3-methoxytyramine (3-MT), serotonin (5-HT), 5-hydroxyindole acetic acid ([…]), and noradrenaline (NA)."}, "[3]": {"tested_on": "5-hydroxyindoleacetic acid in the striatum", "assay": "In vivo test: neurochemistry, 5-hydroxyindoleacetic acid in brain tissue", "conditions": "rat; for 5-hydroxyindoleacetic acid in the striatum: 50 μmol/kg s.c.", "excerpt": "as §1\nas §2, with “(NA). All monoaminergic indices in the dissected tissue were analyzed by means of HPLC with electrochemical detection as described by Svensson K, et al., 1986, Naunynschmiedeberg's Arch Pharmacol 334: 234-245 and references cited therein.” for “(NA).”"}, "[4]": {"tested_on": "serotonin (5-HT)", "assay": "In vivo test: neurochemistry, serotonin in brain tissue", "conditions": "rat, 50 μmol/kg s.c.", "excerpt": "as §1\nas §2, with “(NA). All monoaminergic indices in the dissected tissue were analyzed by means of HPLC with electrochemical detection as described by Svensson K, et al., 1986, Naunynschmiedeberg's Arch Pharmacol 334: 234-245 and references cited therein.” for “(NA).”"}, "[5]": {"tested_on": "serotonin behavioral syndrome", "assay": "Serotonin behavioral syndrome", "type": "in vivo", "conditions": "rat"}, "[6]": {"target": "T1, 5-HT1A receptor (Homo sapiens, UniProt P08908)", "T1 sequence (P08908 1-422)": "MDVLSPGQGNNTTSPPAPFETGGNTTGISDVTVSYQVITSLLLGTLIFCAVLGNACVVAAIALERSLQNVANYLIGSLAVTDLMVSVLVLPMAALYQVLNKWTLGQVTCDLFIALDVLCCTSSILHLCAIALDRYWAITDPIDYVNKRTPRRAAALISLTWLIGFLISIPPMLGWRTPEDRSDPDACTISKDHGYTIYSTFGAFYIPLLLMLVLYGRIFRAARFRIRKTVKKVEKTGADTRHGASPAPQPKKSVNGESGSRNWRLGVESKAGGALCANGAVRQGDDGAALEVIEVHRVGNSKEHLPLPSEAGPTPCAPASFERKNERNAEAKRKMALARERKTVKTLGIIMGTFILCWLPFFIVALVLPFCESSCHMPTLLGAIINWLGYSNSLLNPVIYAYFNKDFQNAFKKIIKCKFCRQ", "conditions": "reported in WO 93/00313; cited from earlier work"}, "[7]": {"tested_on": "rats pre-treated with d-amphetamine", "assay": "In vivo test: behavior, d-amphetamine induced hyperactivity"}, "[8]": {"tested_on": "habituated rats", "conditions": "animals habituated to the motilitymeter box, 50 μmol/kg s.c."}, "[9]": {"tested_on": "rats pre-treated with dizolcipine (Mk-801)", "conditions": "Mk-801 0,7 mg/kg i.p.; test compound 50 μmol/kg sc"}, "[10]": {"tested_on": "sigma receptor", "conditions": "10 μmol/L, rat brain membranes"}, "[11]": {"conditions": "non-pre-treated rat, 50 μmol/kg s.c."}, "[12]": {"conditions": "non-pre-treated rat, 33 μmol/kg (s.c.)"}}, "note": "Where a name gives a salt, the structure may show the parent alone."}
{"smiles": "CCCN1CCN(c2cccc(S(C)(=O)=O)c2)CC1", "note": "(as salt: HCl)", "values": [{"measurement": "melting point", "value": 233, "unit": "°C"}]}
{"smiles": "CCCN1CCC(c2cccc(C(F)(F)F)c2)CC1", "note": "(as salt: HCl)", "values": [{"measurement": "melting point", "value": 195, "unit": "°C"}]}
{"smiles": "CCCCN1CCC(c2cccc(C(F)(F)F)c2)CC1", "note": "(as salt: HCl) [Example 5, 1-Butyl-4-(3-trifluoromethyl-phenyl)piperidine]", "values": [{"measurement": "melting point", "value": 222, "unit": "°C"}]}
{"smiles": "CCN1CCC(c2cccc(S(C)(=O)=O)c2)CC1", "note": "(as salt: HCl) [Example 8, 4-(3-Methanesulfonyl-phenyl)-1-ethyl-piperidine]", "values": [{"measurement": "melting point", "value": 158, "unit": "°C"}]}
{"smiles": "CC(C)N1CCC(c2cccc(S(C)(=O)=O)c2)CC1", "note": "(as salt: HCl) [Example 9, 1-Isopropyl-4-(3-methanesulfonyl-phenyl)-piperidine]", "values": [{"measurement": "melting point", "value": 220, "unit": "°C"}]}
{"smiles": "CC(C)CN1CCC(c2cccc(S(C)(=O)=O)c2)CC1", "note": "(as salt: HCl) [Example 11, 1-Isobutyl-4-(3-methanesulfonyl-phenyl)-piperidine]", "values": [{"measurement": "melting point", "value": 212, "unit": "°C"}]}
{"smiles": "CCCN1CCC(c2cccc(C#N)c2)CC1", "note": "(as salt: fumarate)", "values": [{"measurement": "melting point", "value": 122, "unit": "°C"}]}
{"smiles": "CCCN1CCN(c2cccc(OS(C)(=O)=O)c2)CC1", "note": "(as salt: fumarate) [Example 17, Methanesulfonic acid 3-(4-propyl-piperazin-1-yl)-phenyl ester]", "values": [{"measurement": "melting point", "value": "143 to 144", "unit": "°C"}]}
{"smiles": "CCCN1CCN(c2cccc(C(C)=O)c2)CC1", "note": "(as salt: oxalate)", "values": [{"measurement": "melting point", "value": 119, "unit": "°C"}]}
{"smiles": "CCCN1CCN(c2ccccc2OC)CC1", "note": "[1-(2-methoxy-phenyl)-4-propyl piperazine]", "values": [{"measurement": "behavioral (motor) activity", "setting": "[1]; [11]", "value": "67±34", "unit": "cm/60 min"}, {"measurement": "3,4-dihydroxyphenylacetic acid in the striatum", "setting": "[2]; 50 μmol/kg s.c.", "value": "3836±65", "unit": "ng/g tissue"}]}
{"smiles": "CS(=O)(=O)c1cccc(C2CCN(Cc3ccccc3)CC2)c1", "note": "[1-benzyl-4-(3-methanesulfonyl-phenyl)-piperidine]", "values": [{"measurement": "5-hydroxyindoleacetic acid in the striatum", "setting": "[3]", "value": "487±7", "unit": "ng/g tissue"}, {"measurement": "serotonin (5-HT)", "setting": "[4]", "value": "345±18", "unit": "ng/g tissue"}, {"measurement": "serotonin behavioral syndrome", "setting": "[5]", "value": "induces the serotonin behavioral syndrome"}]}
{"smiles": "FC(F)(F)c1cccc(N2CCN(CCc3ccccc3)CC2)c1", "note": "[1-phenethyl-4-(3-trifluoromethyl-phenyl)-piperazine]", "values": [{"measurement": "3,4-dihydroxyphenylacetic acid in the striatum", "setting": "[2]; 50 μmol/kg s.c.", "value": "1406±77", "unit": "ng/g tissue"}, {"measurement": "5-hydroxyindoleacetic acid in the striatum", "setting": "[3]", "value": "289±16", "unit": "ng/g tissue"}, {"measurement": "serotonin (5-HT)", "setting": "[4]", "value": "282±6", "unit": "ng/g tissue"}, {"measurement": "IC50", "setting": "[6]", "value": 20.3, "unit": "nM"}]}
{"smiles": "CCCN1CCN(c2ccccc2)CC1", "note": "[1-phenyl-4-propyl-piperazine]", "values": [{"measurement": "behavioral activity", "setting": "[1]; [12]", "value": "1923±204", "unit": "cm/60 min"}]}
{"smiles": "CCCN1CCN(c2cccc(C(F)(F)F)c2)CC1", "note": "[1-propyl-4-(3-triflouro-methyl-phenyl) piperazine]", "values": [{"measurement": "behavioral (motor) activity", "setting": "[1]; [11]", "value": "271±137", "unit": "cm/60 min"}, {"measurement": "3,4-dihydroxyphenylacetic acid in the striatum", "setting": "[2]; 50 μmol/kg s.c.", "value": "3358±162", "unit": "ng/g tissue"}]}
{"smiles": "CS(=O)(=O)c1cccc(N2CCN(CCO)CC2)c1", "note": "[2-[4-(3-methanesulfonyl-phenyl)piperazin-1-yl]-ethanol]", "values": [{"measurement": "behavioral activity", "setting": "[1]; [12]", "value": "3782±962", "unit": "cm/60 min"}, {"measurement": "3,4-dihydroxyphenylacetic acid in the striatum", "setting": "[2]; 33 μmol/kg s.c.", "value": "1239±162", "unit": "ng/g tissue"}]}
{"smiles": "Oc1cccc(C2CCN(Cc3ccccc3)CC2)c1", "note": "[3-(1-Benzyl-piperidin-4-yl)-phenol, 3-(1-benzyl-piperidin-4-yl)-phenol]", "values": [{"measurement": "5-hydroxyindoleacetic acid in the striatum", "setting": "[3]", "value": "492±26", "unit": "ng/g tissue"}, {"measurement": "serotonin in the limbic region (5-HT)", "setting": "[4]; limbic region", "value": "677±20", "unit": "ng/g tissue"}]}
{"smiles": "CCCN1CCN(c2cccc(C#N)c2)CC1", "note": "[3-(4-Propyl-piperazine-1-yl)-benzonitrile]", "values": [{"measurement": "behavioral activity", "setting": "[1]; rat, 100 μmol/kg s.c.", "value": "634±266", "unit": "cm/60 min"}, {"measurement": "3,4-dihydroxyphenylacetic acid in the striatum", "setting": "[2]; 100 μmol/kg s.c.", "value": "4498±243", "unit": "ng/g tissue"}, {"measurement": "5-hydroxyindole acetic acid", "setting": "[3]; 100 μmol/kg s.c.", "value": "484±26", "unit": "ng/g tissue"}]}
{"smiles": "CCCN1CCC(c2ccc(S(C)(=O)=O)cc2)CC1", "note": "[4-(4-methanesulphonyl-phenyl)-1-propyl piperidine]", "values": [{"measurement": "3,4-dihydroxyphenylacetic acid in the striatum", "setting": "[2]; 50 μmol/kg s.c.", "value": "928±51", "unit": "ng/g tissue"}]}
{"smiles": "CCCN1CCC(c2ccccc2)CC1", "note": "[4-phenyl-1-propyl-piperidine]", "values": [{"measurement": "behavioral activity", "setting": "[1]; [12]", "value": "2553±471", "unit": "cm/60 min"}, {"measurement": "3,4-dihydroxyphenylacetic acid in the striatum", "setting": "[2]; 33 μmol/kg s.c.", "value": "1190±70", "unit": "ng/g tissue"}, {"measurement": "behavioral activity in the d-amphetamine stimulated", "setting": "[7]; d-amphetamine pre-treated, test compound 33 μmol/kg", "value": "13764±2919", "unit": "cm/60 min"}]}
{"smiles": "CCCN1CCC(c2cccc(S(C)(=O)=O)c2)CC1", "note": "[Example 6, 4-(3-Methanesulfonyl-phenyl)-1-propyl-piperidine]", "values": [{"measurement": "behavioral (motor) activity", "setting": "[1]; [11]", "value": "2879±398", "unit": "cm/60 min"}, {"measurement": "4-dihydroxyphenylacetic acid in the striatum", "setting": "[2]; habituated animals, 50 μmol/kg s.c.", "value": "2074±144", "unit": "ng/g tissue"}, {"measurement": "3,4-dihydroxyphenylacetic acid in the striatum", "setting": "[2]; 50 μmol/kg s.c.", "value": "1703±19", "unit": "ng/g tissue"}, {"measurement": "behavioral activity", "setting": "[8]", "value": "1243±72", "unit": "cm/60 min"}, {"measurement": "behavioral activation induced by dizolcipine (Mk-801)", "setting": "[9]", "value": "18197±1389", "unit": "cm/60 min"}, {"measurement": "inhibition of [3H]-DTG binding", "setting": "[10]", "value": "< 50", "unit": "%"}, {"measurement": "d-Amphetamine hyperactivity", "setting": "[7]; d-amphetamine 1.5 mg/kg s.c., test compound 50 μmol/kg s.c.", "value": "1839±344", "unit": "cm/60 min"}]}
{"smiles": "CCCN1CCC(c2cccc(OS(C)(=O)=O)c2)CC1", "note": "[Example 14, Methanesulfonic acid 3-(1-propyl-piperidin-4-yl)-phenyl ester]", "values": [{"measurement": "behavioral activity", "setting": "[1]; rat, 50 μmol/kg s.c., 30 min session", "value": "2126±240", "unit": "cm/30 min"}, {"measurement": "3,4-dihydroxyphenylacetic acid in the striatum", "setting": "[2]; 50 μmol/kg s.c.", "value": "3208±236", "unit": "ng/g tissue"}]}
{"smiles": "Br.CCCN1CCC(c2cccc(O)c2)CC1", "note": "[preparation 14, 3-(1-Propyl-piperidin-4-yl)-phenol×HBr]", "values": [{"measurement": "3,4-dihydroxyphenylacetic acid in the striatum", "setting": "[2]; 50 μmol/kg s.c.", "value": "1169±42", "unit": "ng/g tissue"}]}
